In general, Ki refers to the dissociation constant of the complex between target and ligand, obtained from inhibition or displacement.

The results in this text go back to patent US20210179655A1, “Prodrugs of a JAK Inhibitor Compound for Treatment of Gastrointestinal Inflammatory Disease” (THERAVANCE BIOPHARMA R&D IP, LLC, priority 2015, published 2021).

A short description of series [1]: Metabolic stability in homogenates from rat upper and lower intestinal content. Format: in vitro ADME. The conditions noted are these: 37° C.; for half-life: 10 μM; for half-life at 10 μM: rat, diluted 1:10 in DPBS. How it is done: The conversion of compound 1 to tofacitinib was evaluated in the intestinal lumen content prepared from the various GI segments isolated from freshly sacrificed rats. Each segment of content from the duodenum, jejunum, ileum, and colon was diluted 1:10 in Dulbecco's phosphate buffer saline (DPBS) solution. […] The incubation was conducted in a water bath at 37° C. and time points were taken at 0, 5, 10, 20, 40 and 60 min. The total incubation volume was 400 μL and 40 μL aliquots were taken at each time point and diluted into 160 μL of 97% ACN+3% formic acid+an internal standard. The samples were centrifuged at 2200 rcf for 10 min and 50 μL of supernatant was diluted into 150 μL of water+1% formic acid.

Series [2] can be described thus: Oral pharmacokinetics of compound 1 in cynomolgus monkey. It is filed as in vivo. Conditions: oral administration of the prodrug.
The test system of a further series is splenic NK cells. Nature of the series: Immunosuppression effects in mouse splenic natural killer (NK) cells. Format: in vivo. The procedure: Adult male Balb/C mice (12-14 weeks of age) from Harlan were used for the study. […] Spleens were harvested 30 min or 3 h post last dose and crushed immediately for cell subtype staining. Prior to fixation, fluorophore-labelled antibodies for CD19 (FITC; B cells), CD3e (PE; pan T cells) and DX5 (APC; NK cells) were incubated with splenocyte samples from each animal to allow for simultaneous, multiple subtype % analysis on the flow cytometer. The number of total spleen cells for each animal was measured by Scepter™ 2.0 Handheld Automated Cell Counter.
The absolute number of lymphocyte subtype population (e.g., splenic B, T and NK cells) was calculated from the percentage of each subtype times total spleen cells for each animal. A one way ANOVA, with Dunnett's post hoc test, was used to compare the splenic lymphocytes number of the vehicle and test compound groups. The a level was set at p<0.05. Data were presented as the mean SEM for each group.

Series [3] can be described thus: Rat colon fecal homogenate stability. Format: in vitro ADME. Conditions: male, rat colon fecal homogenate supernatant, 10 μM, read-out: T½ (In vitro colonic stability, loss of pro-drug). The procedure:
The objective of this study was to determine the stability of the present compounds in rat colon fecal homogenate, i.e. the half-life for decomposition in the presence of the β-glucuronidase in rat colon feces.
Following sacrifice of a naïve male rat (˜300 g) by cardiac puncture exsanguination, the colon was ligated and removed to an anaerobic chamber (AS-580, Anaerobe Systems). The fecal content was removed within the chamber and was diluted 1:10 (1 gram to 9 mL phosphate buffer) and then homogenized using a handheld Omni Tissue Master. The fecal homogenate was centrifuged at 2000 g for 10 min to remove bulk and the supernatant was removed and used for the incubations.
Test articles and a positive control (sulfasalazine) were prepared as 10 mM DMSO stocks. The final substrate concentration of each assay was 10 μM (30 μM for compound 5). Reactions were started by adding a 5 μL aliquot of diluted test compound stock into 300 μL of rat fecal supernatant-homogenate. At 0, 15, 30, 60, 90, and 120 min post reaction initiation, a 50 μL aliquot was removed into 200 μL of acetonitrile with 3% formic acid and an internal standard molecule. All samples were centrifuged at 2000 g for 10 min after which 50 μL of supernatant was diluted into 150 μL of water for analysis on an LC-MS system. In vitro half-lives for loss of pro-drug were calculated as follows: (T½=0.693/elimination rate constant).

The subject of series [4] is Janus kinase (JAK) family of enzymes, non-JAK enzymes, G-protein coupled receptors, ion channels and transporters. Put plainly: Affinity/potency profiling at JAK, non-JAK enzymes, receptors, ion channels and transporters.
A further series addresses JAK2 (Homo sapiens, UniProt O60674). Nature of the series: Biochemical JAK kinase assay (LanthaScreen) JAK2. (TR-FRET usually uses a lanthanide donor and a delayed reading to cut background.)

Molecules are shown by their SMILES.

JAK2, sequence (O60674 whole entry): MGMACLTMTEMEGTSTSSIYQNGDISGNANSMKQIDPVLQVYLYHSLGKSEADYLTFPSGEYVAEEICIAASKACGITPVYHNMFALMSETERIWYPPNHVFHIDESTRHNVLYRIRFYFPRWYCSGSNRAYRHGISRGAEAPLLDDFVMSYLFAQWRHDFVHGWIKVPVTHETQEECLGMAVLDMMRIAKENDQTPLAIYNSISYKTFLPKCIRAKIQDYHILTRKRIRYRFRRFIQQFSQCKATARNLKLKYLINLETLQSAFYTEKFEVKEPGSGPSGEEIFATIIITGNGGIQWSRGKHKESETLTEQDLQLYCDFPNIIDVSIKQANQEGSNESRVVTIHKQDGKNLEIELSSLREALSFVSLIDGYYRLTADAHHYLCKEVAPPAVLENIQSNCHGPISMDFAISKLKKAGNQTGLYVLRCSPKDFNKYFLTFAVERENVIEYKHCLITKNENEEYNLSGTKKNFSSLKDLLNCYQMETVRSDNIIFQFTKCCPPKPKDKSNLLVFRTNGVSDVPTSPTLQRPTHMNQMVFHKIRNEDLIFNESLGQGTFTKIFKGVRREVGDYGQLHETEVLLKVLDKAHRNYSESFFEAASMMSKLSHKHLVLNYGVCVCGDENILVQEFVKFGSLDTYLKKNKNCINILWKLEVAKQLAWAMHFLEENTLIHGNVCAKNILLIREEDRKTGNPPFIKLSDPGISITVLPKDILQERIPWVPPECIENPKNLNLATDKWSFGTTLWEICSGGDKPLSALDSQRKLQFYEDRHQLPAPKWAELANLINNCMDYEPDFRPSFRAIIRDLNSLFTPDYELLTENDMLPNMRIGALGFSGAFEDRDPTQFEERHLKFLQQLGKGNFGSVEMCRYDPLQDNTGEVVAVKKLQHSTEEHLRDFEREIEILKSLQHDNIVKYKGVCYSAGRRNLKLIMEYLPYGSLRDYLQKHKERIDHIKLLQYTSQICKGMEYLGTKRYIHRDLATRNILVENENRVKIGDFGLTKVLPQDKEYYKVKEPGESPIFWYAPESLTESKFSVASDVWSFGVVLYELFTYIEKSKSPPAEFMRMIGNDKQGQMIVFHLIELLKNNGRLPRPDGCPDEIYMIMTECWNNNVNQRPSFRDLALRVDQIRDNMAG
Description for JAK2: A panel of four LanthaScreen JAK biochemical assays (JAK1, 2, 3 and Tyk2) were carried in a common kinase reaction buffer (50 mM HEPES, pH 7.5, 0.01% Brij-35, 10 mM MgCl2, and 1 mM EGTA). Recombinant GST-tagged JAK enzymes and a GFP-tagged STAT1 peptide substrate were obtained from Life Technologies.
Serially diluted compounds were pre-incubated with each of the four JAK enzymes and the substrate in white 384-well microplates (Corning) at ambient temperature for 1 h. ATP was subsequently added to initiate the kinase reactions in 10 μL total volume, with 1% DMSO. […] The JAK1 kinase activity was also tested at 1 mM ATP concentration. […] The plates were allowed to incubate at ambient temperature for 1 h before being read on the EnVision reader (Perkin Elmer).
For dose-response analysis, percent inhibition data were plotted vs. compound concentrations, and IC50 values were determined from a 4-parameter robust fit model with the Prism software (GraphPad Software). Results were expressed as pIC50 (negative logarithm of IC50) and subsequently converted to pKi (negative logarithm of dissociation constant, Ki) using the Cheng-Prusoff equation.

With `C[C@@H]1CCN(C(=O)CC#N)C[C@@H]1N(C)c1ncnc2c1ccn2C(=O)N(C)CCN(C)C(=O)OCc1ccc(O[C@@H]2O[C@H](C(=O)O)[C@@H](O)[C@H](O)[C@H]2O)c([N+](=O)[O-])c1` [Compound 1, (2S,3S,4S,5R,6S)-6-(4-((((2-(4-(((3R,4R)-1-(2-cyanoacetyl)-4-methylpiperidin-3-yl)(methyl)amino)-N-methyl-7H-pyrrolo[2,3-d]pyrimidine-7-carboxamido)ethyl)(methyl)carbamoyl)oxy)methyl)-2-nitrophenoxy)-3,4,5-trihydroxytetrahydro-2H-pyran-2-carboxylic acid], the half-life in series [1] (Colon content) is listed as less than 5 min; in series [1] (Duodenum content) it was greater than 60 min; in series [1] (Jejunum content) it was greater than 60 min. Besides, the half-life at 10 μM is less than 5 min in series [1] (colon lumen content, Colon content); greater than 60 min in series [1] (duodenum lumen content, Duodenum content); 34 min in series [1] (ileum lumen content, Ileum content); greater than 60 min in series [1] (jejunum lumen content, Jejunum content); 1 to 15 min in series [3]. The “increase in tofacitinib concentration in cecum, proximal, and distal colon tissue versus oral tofacitinib” value in series [2] is given as “five- to seven-fold”. The “splenic NK cell counts” value in the series on splenic NK cells (PO (BID) doses up to 10 mg/kg (maximum dose tested), three days, naïve mice) is on record as “unaffected”. Further, the “Systemic functional activity (splenic NK depletion)” value in the series on splenic NK cells (mouse, oral dosing for three days) is listed as greater than 10 mg/kg. Besides, the “affinity for, or potency at, JAK enzymes, non-JAK enzymes, GPCRs, ion channels and transporters” value in series [4] was “no significant affinity for, or potency at”. Moreover, on JAK2, the inhibition constant (Ki) is greater than 631 nM.
